Test [1] has as its target T1, recombinant human ALK5 (TGF-βR1) protein (Homo sapiens, UniProt P36897).
T1 construct: purchased Life Technologies PR9075A
T1 sequence (P36897 34-503): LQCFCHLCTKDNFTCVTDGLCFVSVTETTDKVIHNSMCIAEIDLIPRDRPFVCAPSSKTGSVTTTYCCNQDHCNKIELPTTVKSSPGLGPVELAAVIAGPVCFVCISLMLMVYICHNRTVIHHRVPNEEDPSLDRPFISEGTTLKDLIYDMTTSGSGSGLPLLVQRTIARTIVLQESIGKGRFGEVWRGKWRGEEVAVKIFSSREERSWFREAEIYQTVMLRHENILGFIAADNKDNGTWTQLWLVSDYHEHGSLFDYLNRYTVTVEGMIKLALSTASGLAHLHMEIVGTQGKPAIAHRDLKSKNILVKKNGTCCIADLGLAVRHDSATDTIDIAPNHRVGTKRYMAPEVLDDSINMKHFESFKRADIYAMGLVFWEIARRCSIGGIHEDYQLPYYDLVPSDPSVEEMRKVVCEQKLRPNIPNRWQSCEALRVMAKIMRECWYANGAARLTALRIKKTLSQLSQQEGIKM
Description: Biochemical ALK5 (TGF-βR1) assay to measure pKi (LANCE Ultra ULight kinase assay). The note with it: apparent pKi, converted from pIC50 using the Cheng-Prusoff equation. Summed up: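 TR-FRET kinase format: compound dose range 10 μM–25 pM equilibrated 60 min with human ALK5 and ULight-labelled topoisomerase 2α peptide in HEPES/MgCl2 buffer pH 7.5 with DTT. Reaction started with ATP (125 μM stock, 5× final), 60 min at 37° C, stopped with EDTA/Eu-anti-phospho antibody; pKi derived from pIC50 via Cheng-Prusoff.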
(In general: TR-FRET usually uses a lanthanide donor and a delayed reading to cut background.)

The test system of test [2] is TGF-β-stimulated SMAD3 phosphorylation in BEAS-2B cells. Briefly: Cellular ALK5 potency assay, inhibition of TGF-β stimulated pSMAD3 formation in BEAS-2B cells. The class given is cell-based. The note with it: Homo sapiens, inhibition of TGF-β (10 ng/mL) stimulated pSMAD3 formation, 1 hour compound incubation, read-out: BEAS2B pIC50 (converted). Summed up: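 Phospho-SMAD3 was quantified by AlphaLISA in lysates of human lung epithelial BEAS-2B cells. Compound was added 1 h (37 °C, HEPES/BSA-supplemented HBSS) before a 30 min challenge with 10 ng/mL TGF-β. Values are pIC50 relative to stimulated cells without compound.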

The record followed here is patent US11730720B2, “ALK5 inhibitors” (THERAVANCE BIOPHARMA R&D IP, LLC, priority 2018, dated 2023).

The structures appear in SMILES notation. Where only a bound is given, the exact number is not on record here.

For `Fc1ccc(-c2n[nH]cc2-c2ccc3ncc(-c4cn[nH]c4)cc3n2)cc1F` [Compound 8-13, 2-[3-(3,4-difluorophenyl)-1H-pyrazol-4-yl]-7-(1H-pyrazol-4-yl)-1,5-naphthyridine], in test [1], the Ki is 0.398 to 3.16 nM. Besides, in test [2], the IC50 was not above 20 nM.
For `CN1CCN(C2CCN(c3cnc4ccc(-c5c[nH]nc5-c5ccc(F)c(F)c5)nc4c3)CC2)CC1` [Compound 8-3, 2-(3-(3,4-difluorophenyl)-1H-pyrazol-4-yl)-7-(4-(4-methylpiperazin-1-yl)piperidin-1-yl)-1,5-naphthyridine], in that order: 0.398 to 3.16 nM and 25.1 to 158 nM.
On to `Fc1cc(F)c(-c2n[nH]cc2-c2ccc3ncc(-c4[nH]nc5c4CCN5)cc3n2)cc1Cl` [Compound 6-59, 2-[3-(5-chloro-2,4-difluoro-phenyl)-1H-pyrazol-4-yl]-7-(2,4,5,6-tetrahydropyrrolo[2,3-c]pyrazol-3-yl)-1,5-naphthyridine], for which the Ki in test [1] is 0.0398 to 0.316 nM. Moreover, the IC50 in test [2] was 25.1 to 158 nM.
For `CNCCn1cc(-c2cnc3ccc(-c4c[nH]nc4-c4cccc(COC)c4)nc3c2)cn1` [Compound 14-8, 2-(4-(6-(3-(3-(methoxymethyl)phenyl)-1H-pyrazol-4-yl)-1,5-naphthyridin-3-yl)-1H-pyrazol-1-yl)-N-methylethan-1-amine], in that order: 0.0398 to 0.316 nM and 25.1 to 158 nM.
For `O=C(O)C1CN(CCNc2cnc3ccc(-c4c[nH]nc4-c4cc(Cl)ccc4F)nc3c2)CCN1` (stereo not drawn) [Compound 1-133, 4-[2-[[6-[3-(5-chloro-2-fluoro-phenyl)-1H-pyrazol-4-yl]-1,5-naphthyridin-3-yl]amino]ethyl]piperazine-2-carboxylic acid], in that order: 0.0398 to 0.316 nM and 200 to 1260 nM.
For `CC1(C)CCCN1CCNc1cnc2ccc(-c3nc[nH]c3-c3cc(Cl)ccc3F)nc2c1` [Compound 2-3, 6-[5-(5-chloro-2-fluoro-phenyl)-1H-imidazol-4-yl]-N-[2-(2,2-dimethylpyrrolidin-1-yl)ethyl]-1,5-naphthyridin-3-amine], in that order: 0.0398 to 0.316 nM and 25.1 to 158 nM.
On to `NC1CN(c2cnc3ccc(-c4c[nH]nc4-c4cc(Cl)c(F)cc4F)nc3c2)C1` [Compound 6-30, 1-[6-[3-(5-chloro-2,4-difluoro-phenyl)-1H-pyrazol-4-yl]-1,5-naphthyridin-3-yl]azetidin-3-amine], for which, in test [1], the Ki was 0.0398 to 0.316 nM. Also, in test [2], the IC50 is 25.1 to 158 nM.
For `Fc1cc(F)c(-c2n[nH]cc2-c2ccc3ncc(N4CC5CNC5C4)cc3n2)cc1Cl` (stereo not drawn) [Compound 6-33, 2-[3-(5-chloro-2,4-difluoro-phenyl)-1H-pyrazol-4-yl]-7-(3,6-diazabicyclo[3.2.0]heptan-3-yl)-1,5-naphthyridine], in that order: 0.398 to 3.16 nM and 25.1 to 158 nM.
For `Fc1cc(F)c(-c2n[nH]cc2-c2ccc3ncc(-c4ncn5c4CNCC5)cc3n2)cc1Cl` [Compound 6-49, 2-[3-(5-chloro-2,4-difluoro-phenyl)-1H-pyrazol-4-yl]-7-(5,6,7,8-tetrahydroimidazo[1,5-a]pyrazin-1-yl)-1,5-naphthyridine], in test [1], the Ki is 0.0398 to 0.316 nM. The IC50 in test [2] is 25.1 to 158 nM.
On to `Fc1ccc(Cl)cc1-c1n[nH]cc1-c1ccc2ncc(N3CCC(N4CCCCC4)C3)cc2n1` (racemic) [Compound 1-39, 2-[3-(5-chloro-2-fluoro-phenyl)-1H-pyrazol-4-yl]-7-[rac-(3R)-3-(1-piperidyl)pyrrolidin-1-yl]-1,5-naphthyridine], for which, in test [1], the Ki is 0.0398 to 0.316 nM. Besides, the IC50 in test [2] was not above 20 nM.
Regarding `CNCCn1cc(-c2cnc3ccc(-c4nc[nH]c4-c4cc(Cl)ccc4F)nc3c2)cn1` [Compound 2-19, 2-[4-[6-[5-(5-chloro-2-fluoro-phenyl)-1H-imidazol-4-yl]-1,5-naphthyridin-3-yl]pyrazol-1-yl]-N-methyl-ethanamine], the Ki in test [1] was 0.0398 to 0.316 nM. Further, the IC50 in test [2] is 25.1 to 158 nM.
The like results for `Fc1cc(F)c(-c2n[nH]cc2-c2ccc3ncc(-c4nnc5n4CCN5)cc3n2)cc1Cl` [Compound 6-64, 2-[3-(5-chloro-2,4-difluoro-phenyl)-1H-pyrazol-4-yl]-7-(6,7-dihydro-5H-imidazo[2,1-c][1,2,4]triazol-3-yl)-1,5-naphthyridine] were, in that order, 0.398 to 3.16 nM and 200 to 1260 nM.
For the compound `CC1(C)CCCN1CCNc1cnc2ccc(-c3c[nH]nc3-c3cc(Cl)c(F)cc3F)nc2c1` [Compound 6-5, 6-[3-(5-chloro-2,4-difluoro-phenyl)-1H-pyrazol-4-yl]-N-[2-(2,2-dimethylpyrrolidin-1-yl)ethyl]-1,5-naphthyridin-3-amine], the Ki in test [1] is 0.0398 to 0.316 nM. In test [2], the IC50 is 25.1 to 158 nM.
The like results for `Fc1ccc(Cl)cc1-c1[nH]cnc1-c1ccc2ncc(Nc3ccc(N4CCNCC4)cn3)cc2n1` [Compound 2-4, 6-[5-(5-chloro-2-fluoro-phenyl)-1H-imidazol-4-yl]-N-(5-piperazin-1-yl-2-pyridyl)-1,5-naphthyridin-3-amine] were, in that order, 0.0398 to 0.316 nM and 25.1 to 158 nM.
In the case of `CN1CC=C(c2cnc3ccc(-c4c[nH]nc4-c4cc(Cl)ccc4F)nc3c2)C1` [Compound 1-97, 2-[3-(5-chloro-2-fluoro-phenyl)-1H-pyrazol-4-yl]-7-(1-methyl-2,5-dihydropyrrol-3-yl)-1,5-naphthyridine], the Ki in test [1] is not above 0.0316 nM. The IC50 in test [2] is not above 20 nM.
On to `Fc1ccc(Cl)cc1-c1n[nH]cc1-c1ccc2ncc(N3CC4CNC4C3)cc2n1` (stereo not drawn) [Compound 1-64, 2-[3-(5-chloro-2-fluoro-phenyl)-1H-pyrazol-4-yl]-7-(3,6-diazabicyclo[3.2.0]heptan-3-yl)-1,5-naphthyridine], for which, in test [1], the Ki is 0.0398 to 0.316 nM. Besides, in test [2], the IC50 is not above 20 nM.
Consider `CN1CCC(Nc2cnc3ccc(-c4c[nH]nc4-c4cc(Cl)ccc4F)nc3c2)C1` (stereo not drawn) [Compound 1-4, 6-[3-(5-chloro-2-fluoro-phenyl)-1H-pyrazol-4-yl]-N-(1-methylpyrrolidin-3-yl)-1,5-naphthyridin-3-amine], for which the Ki in test [1] is 0.398 to 3.16 nM. Besides, the IC50 in test [2] was 25.1 to 158 nM.
On to `COC(=O)N1CCc2nnc(-c3cnc4ccc(-c5c[nH]nc5-c5cc(Cl)ccc5F)nc4c3)cc2C1` [Compound 1-126, methyl 3-[6-[3-(5-chloro-2-fluoro-phenyl)-1H-pyrazol-4-yl]-1,5-naphthyridin-3-yl]-7,8-dihydro-5H-pyrido[4,3-c]pyridazine-6-carboxylate], for which the Ki in test [1] is 0.0398 to 0.316 nM. Moreover, the IC50 in test [2] was 25.1 to 158 nM.
The like results for `NC(=O)c1coc(-c2cnc3ccc(-c4c[nH]nc4-c4cc(Cl)ccc4F)nc3c2)n1` [Compound 1-105, 2-[6-[3-(5-chloro-2-fluoro-phenyl)-1H-pyrazol-4-yl]-1,5-naphthyridin-3-yl]oxazole-4-carboxamide] were, in that order, 0.0398 to 0.316 nM and 25.1 to 158 nM.
The like results for `Fc1ccc(Cl)cc1-c1[nH]cnc1-c1ccc2ncc(-c3cc4n(n3)CCNC4)cc2c1` [Compound 17-11, 6-[5-(5-chloro-2-fluoro-phenyl)-1H-imidazol-4-yl]-3-(4,5,6,7-tetrahydropyrazolo[1,5-a]pyrazin-2-yl)quinoline] were, in that order, 0.0398 to 0.316 nM and not above 20 nM.
For `Fc1cc(F)c(-c2n[nH]cc2-c2ccc3ncc(NCC4CCCCN4)cc3n2)cc1Cl` (stereo not drawn) [Compound 6-8, 6-[3-(5-chloro-2,4-difluoro-phenyl)-1H-pyrazol-4-yl]-N-(2-piperidylmethyl)-1,5-naphthyridin-3-amine], in that order: 0.398 to 3.16 nM and 25.1 to 158 nM.
